Reference: patent US20260355184A1, “SMALL MOLECULE DEGRADERS OF HIV-1 TAT PROTEIN” (priority 2022, published 2026)
Where two headings read alike, the source gives them in different places.

How the values were obtained:
[1] = Cytotoxicity assay, Cell-Titer-Glo, HeLa-CD4-LTR-LacZ; settings: human, hela-cd4-ltr-lacz cells, Infectivity CC50, HeLa-CD4-LTR-LacZ
Procedure: (§1) Next, the activity of these leads against HIV infection was evaluated using the reporter cell line HeLa-CD4-LTR-LacZ, which stably expresses the β-galactosidase (β-Gal) gene under the control of the HIV 5′ LTR. The HIV NL4.3 strain was used for these studies and β-Gal activity was measured 72 hrs post infection (FIG. 3A). Cytotoxicity assays using Cell-Titer-Glo were performed in parallel to assess cell viability (FIG. 3A). […] Their anti-HIV activity was further assessed in acute replication of Jurkat T cells with the NL4.3 strain (FIG. 3A). […] These OM10.1 cells contain a single integrated wild-type provirus, while ACH-2 cells contain a single integrated provirus with a TAR mutation C37T, defective Tat-TAR feedback loop (FIG. 3B).

HIV NL4.3 strain = experiment: HIV infectivity assay, reporter cell line HeLa-CD4-LTR-LacZ, β-Gal activity (Tat protein inhibition); format: cell-based, HIV-1 (NL4.3); settings: for IC50: Human immunodeficiency virus 1, read-out: Infectivity IC50, HeLa-CD4-LTR-LacZ
Procedure: as §1

SMILES | CC50 ([1]; analogs of TT-44863 (Table 2)) [µM] | IC50 (HIV NL4.3 strain; analogs of TT-44863 (Table 2)) [µM] | also measured
COc1ccc(C(F)(F)F)cc1NC(=O)Cn1cc(C#N)cc(Cl)c1=O [compound 47018] | > 50 | > 50 | –
CCOC(=O)c1sc(NC(=O)Cn2cc(C(F)(F)F)cc(Cl)c2=O)nc1C(F)(F)F [compound 47063] | 25 to 50 | 23.7 | –
COc1ccc(OC(F)(F)F)cc1NC(=O)Cn1cc(C(F)(F)F)cc(Cl)c1=O [compound 45] | > 100 | 1 to 10 | –
Cc1ccc(C(F)(F)F)cc1NC(=O)Cn1cc(C(F)(F)F)cc(Cl)c1=O [compound 47001] | > 100 | 1 to 10 | –
COc1ccc(C(F)(F)F)cc1NC(=O)Cn1cc(C(F)(F)F)cc(Br)c1=O [compound 47055] | 50 to 100 | 1 to 10 | –
CCCCN(CCCN1CCCC1=O)C(=O)c1nn(-c2ccccc2)c2c1CCC2 [GB-07] | – | – | CC50 ([1]; analogs of TT-44881 (Table 1)): 50 to 100 µM; IC50 (HIV NL4.3 strain; analogs of TT-44881 (Table 1)): 50 to 100 µM
O=C(NCCCn1ccnc1)C(c1ccccc1)c1ccccc1 [compound 46608] | – | – | CC50 ([1]; analogs of TT-44856 (Table 3)): > 100 µM; IC50 (HIV NL4.3 strain; analogs of TT-44856 (Table 3)): 1 to 10 µM
COc1ccc(C(F)(F)F)cc1NC(=O)C(C)n1cc(C(F)(F)F)cc(Cl)c1=O (centres unmarked) [compound 49] | > 100 | 1 to 20 | –
COc1ccc(C)cc1NC(=O)Cn1cc(C(F)(F)F)cc(Cl)c1=O [compound 46689] | > 100 | > 100 | –
COc1cc(C(F)(F)F)ccc1NC(=O)Cn1cc(C(F)(F)F)cc(Cl)c1=O [compound 46808] | > 100 | 1 to 30 | –
O=C(NCCCN1CCCC1=O)c1nc2ccccc2n1-c1ccccc1 [compound 47051] | – | – | CC50 ([1]; analogs of TT-44881 (Table 1)): > 25 µM; IC50 (HIV NL4.3 strain; analogs of TT-44881 (Table 1)): > 25 µM
CC1(C(=O)NCCCn2ccnc2)c2ccccc2-c2ccccc21 [3-50] | – | – | CC50 ([1]; analogs of TT-44856 (Table 3)): > 100 µM; IC50 (HIV NL4.3 strain; analogs of TT-44856 (Table 3)): 1 to 20 µM
O=C(NCCCN1CCCC1=O)c1cn(-c2ccccc2)c2ncccc12 [compound 46751] | – | – | CC50 ([1]; analogs of TT-44881 (Table 1)): > 100 µM; IC50 (HIV NL4.3 strain; analogs of TT-44881 (Table 1)): > 100 µM
COc1ccc(C(F)(F)F)cc1NC(=O)Cn1cc(C)cc(Cl)c1=O [compound 46809] | > 100 | 1 to 10 | –
CC(NC(=O)C(c1ccccc1)c1ccccc1)c1ccc(-n2ccnc2)cc1 (centres unmarked) [Z27307031] | – | – | CC50 ([1]; analogs of TT-44856 (Table 3)): > 100 µM; IC50 (HIV NL4.3 strain; analogs of TT-44856 (Table 3)): 1 to 20 µM
O=C(O)COCCOCCOc1ccc(C(F)(F)F)cc1NC(=O)Cn1cc(C(F)(F)F)cc(Cl)c1=O [compound 48] | > 100 | > 100 | –
COc1ccc(C(F)(F)F)cc1NC(=O)Cn1cccc(F)c1=O [compound 46765] | > 100 | > 100 | –
CC(C(=O)NCCc1ccc(C(F)(F)F)cc1)(c1ccccc1)c1ccccc1 [3-45] | – | – | CC50 ([1]; analogs of TT-44856 (Table 3)): 50 to 100 µM; IC50 (HIV NL4.3 strain; analogs of TT-44856 (Table 3)): 10 to 20 µM
CCCCOCCC(C(=O)NCCCn1ccnc1)(c1ccccc1)c1ccccc1 [3-75] | – | – | CC50 ([1]; analogs of TT-44856 (Table 3)): > 100 µM; IC50 (HIV NL4.3 strain; analogs of TT-44856 (Table 3)): 50 to 100 µM
CN1CCN(CCNC(=O)C(C)(c2ccccc2)c2ccccc2)CC1 [3-51] | – | – | CC50 ([1]; analogs of TT-44856 (Table 3)): > 100 µM; IC50 (HIV NL4.3 strain; analogs of TT-44856 (Table 3)): > 100 µM
O=C1CCCN1CCCN(Cc1ccccc1)C(=O)c1nn(-c2ccccc2)c2c1CCC2 [GB-09] | – | – | CC50 ([1]; analogs of TT-44881 (Table 1)): 25 to 50 µM; IC50 (HIV NL4.3 strain; analogs of TT-44881 (Table 1)): 25 to 50 µM
O=C(NCCCN1CCCC1=O)c1cn(-c2ccccc2)c2ccc(F)cc12 [compound 46880] | – | – | CC50 ([1]; analogs of TT-44881 (Table 1)): 50 to 100 µM; IC50 (HIV NL4.3 strain; analogs of TT-44881 (Table 1)): 50 to 100 µM
O=C(Cn1cc(C(F)(F)F)cc(Cl)c1=O)Nc1cccc(C(F)(F)F)c1 [compound 46748] | > 100 | > 100 | –
CCN(CC(=O)Nc1cc(C(F)(F)F)ccc1OCCOC)C(=O)Cc1ccccc1 [compound 45172] | ~80 | ~80 | –

SMILES | CC50 ([1]; analogs of TT-44863 (Table 2)) [µM] | IC50 (HIV NL4.3 strain; analogs of TT-44863 (Table 2)) [µM] | also measured
O=C(Cn1cc(C(F)(F)F)cc(Cl)c1=O)Nc1cccc2c1OCCO2 [compound 46615] | > 100 | > 100 | –
COc1ccc(C(F)(F)F)cc1NC(=O)Cn1cccc(Cl)c1=O [compound 46763] | > 100 | 50 to 100 | –
CCCN(CCCN1CCCC1=O)C(=O)c1nn(-c2ccccc2)c2c1CCC2 [GB-06] | – | – | CC50 ([1]; analogs of TT-44881 (Table 1)): > 100 µM; IC50 (HIV NL4.3 strain; analogs of TT-44881 (Table 1)): 5 to 30 µM
COc1ccc(C(F)(F)F)cc1NC(=O)Cn1cc(C(F)(F)F)cc(Cl)c1=O [TT-46600] | > 100 | 1 to 10 | increase of potency vs TT-44863 (HIV NL4.3 strain; HeLa-CD4 cell NL4.3 infection assays): ~ 5 fold
COc1cc(NC(=O)Cn2cc(C(F)(F)F)cc(Cl)c2=O)cc(C(F)(F)F)c1 [compound 61] | > 100 | > 100 | –
CCOC(=O)c1c(NCCCN2CCCC2=O)c2ccccc2[nH]c1=O [compound 46823] | – | – | CC50 ([1]; analogs of TT-44881 (Table 1)): > 100 µM; IC50 (HIV NL4.3 strain; analogs of TT-44881 (Table 1)): > 100 µM
COc1ccc(C(F)(F)F)cc1NC(=O)C(CCO)n1cc(C(F)(F)F)cc(Cl)c1=O (centres unmarked) [compound 60] | 10 to 30 | 10 to 50 | –
CCN(CCCN1CCCC1=O)C(=O)c1cc(C)n(-c2ccccc2)n1 [GB-16] | – | – | CC50 ([1]; analogs of TT-44881 (Table 1)): > 100 µM; IC50 (HIV NL4.3 strain; analogs of TT-44881 (Table 1)): > 100 µM
COc1ccc(C(F)(F)F)cc1CNC(=O)Cn1cc(C(F)(F)F)cc(Cl)c1=O [compound 46875] | > 100 | > 100 | –
CCC(C(=O)NCCCn1ccnc1)(c1ccccc1)c1ccccc1 [3-49] | – | – | CC50 ([1]; analogs of TT-44856 (Table 3)): > 100 µM; IC50 (HIV NL4.3 strain; analogs of TT-44856 (Table 3)): 1 to 10 µM
O=C(NCCCN1CCCC1=O)c1nn(-c2ccccc2)c2c1CCCC2 [compound 46819] | – | – | CC50 ([1]; analogs of TT-44881 (Table 1)): > 50 µM; IC50 (HIV NL4.3 strain; analogs of TT-44881 (Table 1)): > 50 µM
COc1ccc(F)cc1NC(=O)Cn1cc(C(F)(F)F)cc(Cl)c1=O [compound 46867] | 50 to 100 | 10 to 30 | –
COc1ccc(C(F)(F)F)cc1CNC(=O)Cn1cc(C(F)(F)F)ccc1=O [compound 46960] | > 100 | > 100 | –
O=C(NCCCn1ccnc1)c1nn(-c2ccccc2)c2c1CCC2 [3-63] | – | – | CC50 ([1]; analogs of TT-44856 (Table 3)): 1 to 10 µM; IC50 (HIV NL4.3 strain; analogs of TT-44856 (Table 3)): 1 to 10 µM
N#Cc1c(NCCCN2CCCC2=O)c2ccccc2[nH]c1=O [compound 46822] | – | – | CC50 ([1]; analogs of TT-44881 (Table 1)): > 100 µM; IC50 (HIV NL4.3 strain; analogs of TT-44881 (Table 1)): > 100 µM
COc1ccc(OC)c(NC(=O)Cn2cc(C(F)(F)F)cc(Cl)c2=O)c1 [compound 46868] | > 100 | > 100 | –
CCN(CCCN1CCCC1=O)C(=O)c1nn(-c2ccccc2)c2c1CCC2 [GB-05] | – | – | CC50 ([1]; analogs of TT-44881 (Table 1)): > 100 µM; IC50 (HIV NL4.3 strain; analogs of TT-44881 (Table 1)): > 100 µM
COc1ccc(C#N)cc1NC(=O)Cn1cc(C(F)(F)F)cc(Cl)c1=O [compound 46828] | 50 to 100 | 50 to 100 | –
CCn1nc(C(=O)NCCCN2CCCC2=O)c2c1CCC2 [compound 46932] | – | – | CC50 ([1]; analogs of TT-44881 (Table 1)): > 100 µM; IC50 (HIV NL4.3 strain; analogs of TT-44881 (Table 1)): > 100 µM
Cc1nccn1CCCNC(=O)C(c1ccccc1)(c1ccccc1)c1ccccc1 [3-67] | – | – | CC50 ([1]; analogs of TT-44856 (Table 3)): 50 to 100 µM; IC50 (HIV NL4.3 strain; analogs of TT-44856 (Table 3)): 1 to 20 µM
COc1ccc(C(F)(F)F)cc1-c1noc(Cn2cc(C(F)(F)F)ccc2=O)n1 [compound 47199] | > 50 | > 50 | –
CCOCCOCCOc1ccc(C(F)(F)F)cc1NC(=O)Cn1cc(C(F)(F)F)cc(Cl)c1=O [compound 55] | > 100 | 1 to 20 | –
COc1ccccc1CNC(=O)Cn1cccc(Cl)c1=O [compound 46747] | > 100 | > 100 | –
